Like-named read-outs stand apart in the source and are kept apart here.
Legend:
[1] = test system: HBV (HepG2.117 cell line, inducibly HBV producing); test: Anti-HBV activity: intracellular HBV DNA by real-time PCR in HepG2.117 cells after 3 days of treatment; type: cell-based, hepatitis B virus
Method in brief: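 Readout is intracellular HBV DNA, measured by real-time PCR with HBV-specific primers and probe after 3 days of exposure to serial compound dilutions. Cells are the stable HepG2.117 line, where HBV replication is induced in the absence of doxycycline.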

in vitro = type: cell-based; settings: human, HepG2 or HepG2.117 cells, ATPlite, mean value
Method in brief: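 Luminescent ATP quantitation served as the viability endpoint following a 3- or 4-day incubation with test compounds.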

[2] = Hepatitis B virus, HepG2.117, 72 h, HepG2.117 cells, 3 days of treatment, intracellular HBV DNA by real-time PCR; mean value; read-out: EC50 (μM, mean value)
[3] = 3-days incubation (unmarked values)
[4] = Hepatitis B virus, HepG2.117, 72 h, HepG2.117 cells, intracellular HBV DNA by real-time PCR, 3 days of treatment, mean value; read-out: EC50 (μM, mean value)
[5] = 3-days incubation (not marked with *)

Cc1noc(-c2ccc(-n3c(NC(C)C)nc4c(c3=O)C[C@@H](C)N(C(=O)c3ccc(Cl)c(Cl)c3)C4)cc2)n1 [Compound C371]
EC50 [1, 2]: 0.13 µM
CC50 at 3 days (in vitro; [3]): > 50 µM

CNC(=O)c1ccc(-n2c(NC(C)c3ccnn3C)nc3c(c2=O)C[C@@H](C)N(C(=O)c2ccc(Cl)c(Cl)c2)C3)cc1 (stereo partly shown) [Compound C372]
EC50 [1, 2]: 11.7 µM
CC50 at 3 days (in vitro; [3]): > 50 µM

CNC(=O)c1ccc(-n2c(N3CCC34CCC4)nc3c(c2=O)C[C@@H](C)N(C(=O)c2ccc(Cl)c(Cl)c2)C3)cc1 [Compound C373]
EC50 [1, 2]: 0.71 µM
CC50 at 3 days (in vitro; [3]): 28.3 µM

CNC(=O)c1nnc(-n2c(NC(C)C)nc3c(c2=O)C[C@@H](C)N(C(=O)c2ccc(Cl)c(Cl)c2)C3)[nH]1 [Compound C374]
EC50 [1, 2]: 1.49 µM
CC50 at 3 days (in vitro; [3]): > 50 µM

CNC(=O)c1cc(Cl)c(-n2c(NC(C)C)nc3c(c2=O)C[C@@H](C)N(C(=O)c2ccc(Cl)c(Cl)c2)C3)c(Cl)c1 [Compound C376]
EC50 [1, 2]: 0.09 µM
CC50 at 3 days (in vitro; [3]): > 50 µM

CNC(=O)c1ccc(-n2c(NCc3cccnc3)nc3c(c2=O)C[C@@H](C)N(C(=O)c2ccc(Cl)c(Cl)c2)C3)cc1 [Compound C378]
EC50 [1, 4]: 5.73 µM
CC50 at 3 days (in vitro; [5]): > 50 µM

CNC(=O)c1csc(-n2c(NC(C)C)nc3c(c2=O)C[C@@H](C)N(C(=O)c2ccc(Cl)c(Cl)c2)C3)n1 [Compound C379]
EC50 [1, 4]: 0.22 µM
CC50 at 3 days (in vitro; [5]): 22.1 µM

CNC(=O)c1ccc(-n2c(N[C@@H](C)c3ccc(F)cc3)nc3c(c2=O)C[C@@H](C)N(C(=O)c2ccc(Cl)c(Cl)c2)C3)cc1 [Compound C380]
EC50 [1, 4]: 0.1 µM
CC50 at 3 days (in vitro; [5]): 15.7 µM

CNC(=O)c1ccc(-n2c(NCC3(C)CC3)nc3c(c2=O)C[C@@H](C)N(C(=O)c2ccc(Cl)c(Cl)c2)C3)cc1 [Compound C381]
EC50 [1, 4]: 0.95 µM
CC50 at 3 days (in vitro; [5]): 31.8 µM

CC(C)NC(=O)c1cnc(-n2c(NC(C)C)nc3c(c2=O)C[C@@H](C)N(C(=O)c2ccc(Cl)c(Cl)c2)C3)nc1 [Compound C382]
EC50 [1, 4]: 0.05 µM
CC50 at 3 days (in vitro; [5]): > 50 µM

CC(C)Nc1nc2c(c(=O)[nH]1)C[C@@H](C)N(C(=O)c1ccc(Cl)c(Cl)c1)C2 [Compound C384]
EC50 [1, 4]: 0.75 µM
CC50 at 3 days (in vitro; [5]): > 50 µM

CC(C)Nc1nc2c(c(=O)n1-c1ccc(S(C)(=O)=O)c(C(F)F)c1)C[C@@H](C)N(C(=O)c1ccc(Cl)c(Cl)c1)C2 [Compound C385]
EC50 [1, 4]: 0.86 µM
CC50 at 3 days (in vitro; [5]): > 50 µM

CC(C)Nc1nc2c(c(=O)n1-c1ccc(S(=O)(=O)NC(C)C)cc1)C[C@@H](C)N(C(=O)c1ccc(Cl)c(Cl)c1)C2 [Compound C388]
EC50 [1, 4]: 0.62 µM
CC50 at 3 days (in vitro; [5]): > 50 µM

CNC(=O)c1ccc(-n2c(Nc3ccnn3C)nc3c(c2=O)C[C@@H](C)N(C(=O)c2ccc(Cl)c(Cl)c2)C3)cc1 [Compound C389]
EC50 [1, 4]: > 10 µM
CC50 at 3 days (in vitro; [5]): > 50 µM

CNC(=O)c1ccc(-n2c(N[C@@H](C)C(C)C)nc3c(c2=O)C[C@@H](C)N(C(=O)c2ccc(Cl)c(Cl)c2)C3)cc1 [Compound C390]
EC50 [1, 4]: 0.08 µM
CC50 at 3 days (in vitro; [5]): 26.5 µM

CNC(=O)c1cc(C)c(-n2c(NC(C)C)nc3c(c2=O)C[C@@H](C)N(C(=O)c2ccc(Cl)c(Cl)c2)C3)c(C)c1 [Compound C391]
EC50 [1, 4]: 0.18 µM
CC50 at 3 days (in vitro; [5]): > 50 µM

Cc1noc2cc(-n3c(NC(C)C)nc4c(c3=O)C[C@@H](C)N(C(=O)c3ccc(Cl)c(Cl)c3)C4)ccc12 [Compound C395]
EC50 [1, 4]: 0.15 µM
CC50 at 3 days (in vitro; [5]): > 50 µM

CNC(=O)c1ccc(-n2c(NC(C)(C)C3CC3)nc3c(c2=O)C[C@@H](C)N(C(=O)c2ccc(Cl)c(Cl)c2)C3)cc1 [Compound C396]
EC50 [1, 4]: 0.08 µM
CC50 at 3 days (in vitro; [5]): 39.5 µM

CC[C@@H](C)Oc1nc2c(c(=O)n1-c1ccc(C(=O)NC)cc1)C[C@@H](C)N(C(=O)c1ccc(Cl)c(Cl)c1)C2 [Compound C397, 4-(R-2-(R-sec-butoxy)-7-(3,4-dichlorobenzoyl)-6-methyl-4-oxo-5,6,7,8-tetrahydropyrido[3,4-d]pyrimidin-3(4H)-yl)-N-methylbenzamide]
EC50 [1, 4]: 0.05 µM
CC50 at 3 days (in vitro; [5]): 25.2 µM

CC[C@H](C)Oc1nc2c(c(=O)n1-c1ccc(C(=O)NC)cc1)C[C@@H](C)N(C(=O)c1ccc(Cl)c(Cl)c1)C2 [Compound C398]
EC50 [1, 4]: 0.1 µM
CC50 at 3 days (in vitro; [5]): 25.3 µM

Cc1cc(-c2ncc[nH]2)ccc1-n1c(NC(C)C)nc2c(c1=O)C[C@@H](C)N(C(=O)c1ccc(Cl)c(Cl)c1)C2 [Compound C399]
EC50 [1, 4]: 0.24 µM
CC50 at 3 days (in vitro; [5]): 25.2 µM

CC(C)Nc1nc2c(c(=O)n1-c1ccc(S(=O)(=O)Nc3ccccn3)cc1)C[C@@H](C)N(C(=O)c1ccc(Cl)c(Cl)c1)C2 [Compound C400]
EC50 [1, 4]: 1.15 µM
CC50 at 3 days (in vitro; [5]): > 50 µM

CNC(=O)c1ccc(-n2c(OC(C)C)nc3c(c2=O)C[C@@H](C)N(C(=O)c2ccc(Cl)c(Cl)c2)C3)c(Cl)c1 [Compound C403a]
EC50 [1, 4]: 0.06 µM
CC50 at 3 days (in vitro; [5]): 36.7 µM

Source: patent US20230091047A1 (priority 2019, published 2023)
